Here are results for one compound from patent publication US10253039B2, “Inhibitors of bacterial DNA gyrase with efficacy against gram-negative bacteria” (priority 2014, dated 2019).

Assay [1] relates to Salmonella typhimurium. Kind of assay: MIC, microdilution in 96-well plates. As to conditions: Salmonella enterica. (In broth dilution the organism is exposed to a series of concentrations in liquid medium.)
In assay [2] the test system is Staphylococcus aureus. The experiment in a line: MIC, microdilution in 96-well plates.
The test system of assay [3] is E. coli BW25113 ΔtolC gyrR isolate GyrA Ser97Pro. Kind of assay: MIC against gyramide-resistant mutant. As to conditions: Escherichia coli, BW25113.
Method: (§2) A microdilution method in 96-well plates was used and the MIC protocol established by the Clinical Laboratory Standards Institute was followed. From a growing subculture, a 1:10000 inoculum of each strain in Luria-Bertani media was prepared and aliquoted 100 μL in 4 columns of wells, except for the top row wells, which contained 200 μL of inoculum. […] The liquid in each of wells was mixed with a multi-channel pipet and 100 μL was transferred to the next well and mixed. The 2-fold dilution was continued down the 96-well plate until 100 μL was left, which was discarded. The plates were incubated at 37° C. with shaking for 16-18 hours. The MIC was determined as the lowest concentration that inhibited growth and had no turbidity by visual inspection.
In assay [4] the test system is mutant E. coli (with a drug pump knock out). Kind of assay: Killing of mutant E. coli. The assay is classed as cell-based, Escherichia coli.
Assay [5] has as its system E. coli BW25113 ΔtolC. Kind of assay: MIC, microdilution in 96-well plates. Conditions: Escherichia coli.
Assay [6] deals with E. coli BW25113 ΔtolC gyrR isolate GyrA Pro35Thr. The experiment in a line: MIC against gyramide-resistant mutant. As to conditions: Escherichia coli, BW25113.
Method: as §2
For assay [7], the system named is Enterococcus faecalis. The experiment in a line: MIC, 20-strain panel. The format is cell-based. Conditions: Table 7, separate set of experiments. In a few lines: (§1)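 Growth inhibition was scored after overnight culture (16-18 hours, 37° C., shaking) by looking for turbidity; the first clear well in a triplicate 2-fold compound series defined the MIC. Strains were inoculated at 1:10000 into LB.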

In assay [8] the test system is E. coli JW5503 (deltolC). The experiment in a line: MIC, 20-strain panel. The format is cell-based. Conditions: Escherichia coli, E. coli JW5503 (deltolC); Table 7, separate set of experiments. Put shortly: as §1
Assay [9] concerns Enterococcus faecium. The experiment in a line: MIC, 20-strain panel. Conditions: Table 7, separate set of experiments, read-out: MIC. The assay is classed as cell-based. Put shortly: as §1
Assay [10] relates to Streptococcus pyogenes. The experiment in a line: MIC, 20-strain panel. Conditions: Table 7, separate set of experiments, read-out: MIC. The assay is classed as cell-based. Put shortly:
as §1

The subject of assay [11] is Staphylococcus epidermidis. The experiment in a line: MIC, 20-strain panel. The format is cell-based. As to conditions: Table 7, separate set of experiments, read-out: MIC. In a few lines:
as §1

In assay [12] the test system is Shigella flexneri. The experiment in a line: MIC, 20-strain panel. The assay is classed as cell-based. As to conditions: Table 7, separate set of experiments. Put shortly: as §1
In assay [13] the test system is E. coli MG1655. Kind of assay: MIC, 20-strain panel. The format is cell-based. As to conditions: Escherichia coli, MG1655, E. coli MG1655; Table 7, separate set of experiments; read-out: MIC. In a few lines: as §1
Assay [14] has as its system Streptococcus agalactiae. The experiment in a line: MIC, 20-strain panel. The assay is classed as cell-based. As to conditions: Table 7, separate set of experiments, read-out: MIC. Put shortly:
as §1

Structures are written as SMILES. Values after ≈ are worked out from the molar mass of the structure shown. Bounds are passed on as bounds.

A word on the MIC: it is the least concentration at which growth counts as inhibited. For `N#Cc1cccc(S(=O)(=O)N[C@@H]2CCN(Cc3ccc(-c4ccccc4)cc3)C2)c1` [Gyramide C2, gyramide C2], the MIC in [1] (with PAβN (60 μM)) is 2.5 µM (≈ 1.04 µg/mL); in [1] (without PAβN), above 640 µM; in [2] (with PAβN (60 μM)) it was 40 µM (≈ 16.7 µg/mL); in [2] (without PAβN) it was 160 µM (≈ 66.8 µg/mL); in [3] it was above 25.6 µM; in assay [5] (BW25113, E. coli BW25113 ΔtolC (parent strain), Table 4) it was 0.1 µM (≈ 0.0418 µg/mL). The MIC was 0.1 µM (≈ 0.0418 µg/mL) in assay [5] (BW25113, E. coli BW25113 ΔtolC (parent strain), Table 5); 0.25 µM (≈ 0.104 µg/mL) in assay [5] (BW25113, E. coli BW25113 ΔtolC, without PAβN, Table 3); 25.6 µM (≈ 10.7 µg/mL) in [6]; above 16 µg/mL in assay [7]; 0.015 µg/mL (≈ 0.0359 µM) in [8]; above 16 µg/mL in assay [9]. Moreover, the MIC in assay [10] is above 16 µg/mL; in [11], above 16 µg/mL; in assay [12] it was 8 µg/mL (≈ 19.2 µM); in assay [13], 16 µg/mL (≈ 38.3 µM); in assay [14] it was above 16 µg/mL. In addition, the “concentration observed to kill mutant E. coli” value in assay [4] turned out to be 300 nM.
